Several values for one entry are separate records, joined by “and”; a condition that tells them apart may be missing. Identical values can stand only once. Like-named read-outs stand apart in the source and are kept apart here.
Columns and labels:
[1] = system: native GABAARs in cerebellar granule cells; assay: Whole-cell patch clamp of cerebellar granule cells in mouse brain slices, cumulative concentration-response; format: cell-based; settings: for Concentration at which currents reach saturation / Threshold concentration for eliciting currents: cumulative application; for Hill slope of the concentration-response curve: normalized concentration-response curves; for Hill slope of the concentration-response curve / Maximal current response (Imax ± SEM) / EC50: n = 7; for Maximal current response (Imax ± SEM): 1 mM HT, 3 mM taurine, 3 mM GABA; for EC50: read-out: EC50 for evoking GABAAR-mediated current, CGCs held at −70 mV, 10 μM DNQX, 0.3 μM TTX, room temperature, mean ± SEM
[2] = biological target: mouse brain native GABAARs; assay: 5 nM [3H]muscimol displacement from mouse brain (sans cerebellum) membranes; format: binding; settings: n = 9; for IC50: 5 nM [3H]muscimol, mean ± SEM, read-out: IC50 for displacing [3H]muscimol binding
Description: Adult mouse brain (sans cerebellum) membrane pellets were prepared essentially as described by [Uusi-Oukari et al. (2014)], suspended in 50 mM Tris-HCl, pH 7.4 (assay buffer) and frozen at −80°C. For binding experiments, the suspension was thawed and washed by centrifugation/resuspension in assay buffer. 5 nM [^3H]muscimol binding was measured in assay buffer at room temperature (RT, ∼22°C) in a total volume of 300 µL. […] After 20 min incubation at room temperature the membranes were collected with a Brandel Cell Harvester (Model M-24, Gaithersburg, MD, United States) onto Whatman GF/B filters (Whatman International Ltd., Maidstone, United Kingdom). The samples were rinsed twice with 4–5 mL of ice-cold assay buffer. Filtration and rinsing steps took a total time of ∼15 s. Air-dried filters were immersed in 3 mL of Optiphase HiSafe 3 scintillation fluid (Wallac, Turku, Finland) and radioactivity determined in a Hidex 600 SL liquid scintillation counter (Hidex, Turku, Finland). [^3H]Muscimol displacement and electrophysiology data were analyzed with GraphPad Prism 7 software (GraphPad, San Diego, CA, United States). Data are presented as mean ± standard error of mean (SEM). Statistical data analysis was performed with a Student’s t-test (two-tailed distribution, unequal variance) in Microsoft Excel.

GABAAR = system: GABAAR; parameters: method as in Allan and Harris, 1986; settings: ref Allan and Harris, 1986; cited from earlier work
ρ1-GABAARs = system: ρ1-GABAARs; parameters: method as in Ochoa-de la Paz et al., 2018; settings: expressed in oocytes, ref Ochoa-de la Paz et al., 2018, cited from earlier work
[3] = parameters: method as in Hey et al., 2018; settings: ref Hey et al., 2018; cited from earlier work
primary cultured neurons = system: primary cultured neurons; parameters: method as in Gervais et al., 2007; settings: 100 μM HT; ref Gervais et al., 2007; cited from earlier work
rat = system: rat; parameters: method as in Olive et al., 2002; settings: fold lower doses than acetyl-HT, rat models; ref Olive et al., 2002; cited from earlier work
rat brain GABAARs = system: rat brain GABAARs; parameters: method as in Bureau and Olsen, 1991; settings: ref Bureau and Olsen, 1991, read-out: Average IC50 for displacing [3H]muscimol; cited from earlier work
[4] = system: GABAARs in thalamocortical relay neurons; parameters: method as in Jia et al., 2008; settings: ref Jia et al., 2008; cited from earlier work
[5] = system: strychnine-sensitive glycine receptors; parameters: method as in Jia et al., 2008; settings: ref Jia et al., 2008; cited from earlier work
mice = system: mice; parameters: method as in Singh et al., 2023; settings: taurine 1 g/kg per day, ref Singh et al., 2023; cited from earlier work
[6] = system: chick embryonic neuronal cultures; parameters: method as in Louzada et al., 2004; settings: 1 mM taurine; ref Louzada et al., 2004; cited from earlier work

Row | SMILES | Concentration at which currents reach saturation [1] | Threshold concentration for eliciting currents [1] | Hill slope of the concentration-response curve [1] | Maximal current response (Imax ± SEM) [1] | EC50 [1] | IC50 ([2]; room temperature) | Hill slope of the [3H]muscimol displacement curve [2] | other results
1 | NCCCC(=O)O [GABA] | ~1 mM | 300 nM | 0.92 ± 0.13 | – | – | – | – | –
2 | COc1ccc(-c2ccc(=N)n(CCCC(=O)O)n2)cc1 [Gabazine] | – | – | – | – | – | – | – | Block of currents evoked by 1 mM HT, 3 mM taurine and 3 mM GABA ([1]; applied together with saturating agonist): completely blocks
3 | NCCCS(=O)(=O)O [HT, Homotaurine] | around 10 µM | ~100 nM | 0.79 ± 0.05 | −75 ± 7 pA | 400 nM and 425 nM and ~400 nM | 160 nM and 158 nM and ~200 nM | −0.79 ± 0.04 | Potency relative to GABA ([1]; times more potent than GABA): about 10 times; Sensitivity of native CGC GABAARs relative to recombinant ρ1-GABAARs ([1]; times more sensitive to HT): about 1000 times; IC50 [2]: 158 ± 10 nM; IC50 ([2]; room temperature, listed as Homotaurine): 158 ± 10 nM; Concentration that stimulates GABAAR-mediated chloride flux (GABAAR): ≥ 100 µM; Type of agonism on recombinant ρ1-GABAARs (ρ1-GABAARs): partial agonist; EC50 (ρ1-GABAARs; read-out: EC50 on recombinant ρ1-GABAARs): ~300000 nM; Estimated average total brain 14C-HT [3]: 0.55 µM; Effect on neuronal death induced by 5 μM Aβ42 (primary cultured neurons): inhibited; Dose that reduces alcohol intake, relative to acetyl-HT (rat): ~10 fold
4 | NCCS(=O)(=O)O [taurine, Taurine] | around 3 mM | around 10 μM | 0.87 ± 0.06 | −67 ± 7 pA | 116000 nM | 125000 nM | −0.86 ± 0.04 | IC50 (rat brain GABAARs): ~50000 nM; Concentration that activates GABAARs [4]: ≥ 10 µM; Concentration that also activates strychnine-sensitive glycine receptors [5]: > 100 µM; Increase in life span (mice): 10%; Effect on neurotoxicity of 44 μM Aβ42 and glutamate receptor agonists [6]: prevented

From publication PMC10752957, “GABAA receptors as plausible molecular targets and mediators for taurine and homotaurine actions” (Frontiers in Pharmacology, 2023)
